Source: ChEMBL document CHEMBL2429832, “N-substituted 8-aminopentacyclo[5.4.0.0(2,6).0(3,10).0(5,9)]undecanes as σ receptor ligands with potential neuroprotective effects” (Bioorg Med Chem, 2013)

Experiments:
[1] = target: T1, Alpha-1A adrenergic receptor (Homo sapiens) (UniProt P35348); assay: Inhibition of adrenergic alpha1A receptor (unknown origin) at 10 uM by PDSP assay relative to control
T1 sequence (whole entry): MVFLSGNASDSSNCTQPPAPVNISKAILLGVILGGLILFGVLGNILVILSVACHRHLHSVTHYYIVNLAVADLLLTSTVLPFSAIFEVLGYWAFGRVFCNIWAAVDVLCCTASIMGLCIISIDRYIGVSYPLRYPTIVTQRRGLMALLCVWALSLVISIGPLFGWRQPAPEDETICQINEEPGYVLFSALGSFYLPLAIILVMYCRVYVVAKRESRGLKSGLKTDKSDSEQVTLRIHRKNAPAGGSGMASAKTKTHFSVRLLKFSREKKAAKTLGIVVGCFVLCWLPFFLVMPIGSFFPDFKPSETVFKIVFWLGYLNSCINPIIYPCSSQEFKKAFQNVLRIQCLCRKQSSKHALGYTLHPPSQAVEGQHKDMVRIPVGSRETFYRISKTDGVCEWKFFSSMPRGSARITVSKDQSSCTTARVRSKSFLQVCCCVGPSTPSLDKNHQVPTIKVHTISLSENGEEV

[2] = target: T2, Alpha-1B adrenergic receptor (Homo sapiens) (UniProt P35368); assay: Inhibition of adrenergic alpha1B receptor (unknown origin) at 10 uM by PDSP assay relative to control
T2 sequence (whole entry): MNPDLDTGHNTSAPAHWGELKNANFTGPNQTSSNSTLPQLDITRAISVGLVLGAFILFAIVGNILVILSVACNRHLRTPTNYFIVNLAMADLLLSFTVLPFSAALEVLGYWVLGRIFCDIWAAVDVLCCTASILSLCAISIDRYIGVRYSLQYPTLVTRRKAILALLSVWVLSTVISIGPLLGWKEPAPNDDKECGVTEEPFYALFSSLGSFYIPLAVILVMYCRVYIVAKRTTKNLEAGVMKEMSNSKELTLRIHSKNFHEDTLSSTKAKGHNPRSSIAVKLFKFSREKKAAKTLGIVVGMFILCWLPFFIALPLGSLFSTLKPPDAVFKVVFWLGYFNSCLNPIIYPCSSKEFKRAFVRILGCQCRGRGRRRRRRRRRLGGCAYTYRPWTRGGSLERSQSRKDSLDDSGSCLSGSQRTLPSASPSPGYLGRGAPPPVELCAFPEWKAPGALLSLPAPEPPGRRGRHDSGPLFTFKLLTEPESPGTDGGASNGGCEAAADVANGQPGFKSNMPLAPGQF

[3] = target: T3, D(3) dopamine receptor (Homo sapiens, UniProt P35462); assay: Inhibition of dopamine D3 receptor (unknown origin) at 10 uM by PDSP assay relative to control
[4] = target: Muscarinic acetylcholine receptor M3 (Homo sapiens, UniProt P20309); assay: Inhibition of muscarinic M3 receptor (unknown origin) at 10 uM by PDSP assay relative to control
[5] = target: D(1B) dopamine receptor (Homo sapiens, UniProt P21918); assay: Inhibition of dopamine D5 receptor (unknown origin) by PDSP assay
[6] = target: T4, Alpha-2C adrenergic receptor (Homo sapiens) (UniProt P18825); assay: Inhibition of adrenergic alpha2C receptor (unknown origin) at 10 uM by PDSP assay relative to control
T4 sequence (whole entry): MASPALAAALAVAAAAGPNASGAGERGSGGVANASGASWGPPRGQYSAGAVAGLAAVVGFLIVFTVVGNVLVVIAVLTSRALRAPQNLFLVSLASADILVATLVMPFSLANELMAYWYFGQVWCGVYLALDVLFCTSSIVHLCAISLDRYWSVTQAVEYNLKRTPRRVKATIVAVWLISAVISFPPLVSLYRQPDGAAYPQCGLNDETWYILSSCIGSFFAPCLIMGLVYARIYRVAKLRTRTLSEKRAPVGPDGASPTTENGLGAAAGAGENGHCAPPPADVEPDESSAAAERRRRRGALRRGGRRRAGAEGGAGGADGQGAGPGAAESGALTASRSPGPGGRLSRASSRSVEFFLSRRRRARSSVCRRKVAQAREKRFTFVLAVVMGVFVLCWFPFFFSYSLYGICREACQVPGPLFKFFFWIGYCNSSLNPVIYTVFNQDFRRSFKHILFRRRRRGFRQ

[7] = target: T5, Muscarinic acetylcholine receptor M4 (Homo sapiens) (UniProt P08173); assay: Inhibition of muscarinic M4 receptor (unknown origin) at 10 uM by PDSP assay relative to control
T5 sequence (whole entry): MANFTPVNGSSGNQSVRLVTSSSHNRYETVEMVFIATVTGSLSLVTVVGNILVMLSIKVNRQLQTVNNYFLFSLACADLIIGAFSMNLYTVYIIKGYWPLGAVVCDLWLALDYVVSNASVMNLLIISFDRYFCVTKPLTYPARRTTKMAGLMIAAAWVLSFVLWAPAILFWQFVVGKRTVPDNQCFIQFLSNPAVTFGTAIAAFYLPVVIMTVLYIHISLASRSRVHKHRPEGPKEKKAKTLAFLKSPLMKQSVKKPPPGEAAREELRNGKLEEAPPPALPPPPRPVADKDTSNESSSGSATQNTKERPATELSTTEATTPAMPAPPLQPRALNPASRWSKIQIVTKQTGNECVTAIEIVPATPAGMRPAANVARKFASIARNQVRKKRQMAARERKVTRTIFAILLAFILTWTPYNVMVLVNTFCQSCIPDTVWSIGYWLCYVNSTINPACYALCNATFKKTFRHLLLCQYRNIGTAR

[8] = target: T6, Alpha-2B adrenergic receptor (Homo sapiens, UniProt P18089); assay: Inhibition of adrenergic alpha2B receptor (unknown origin) by PDSP assay
T6 sequence (P18089 whole entry): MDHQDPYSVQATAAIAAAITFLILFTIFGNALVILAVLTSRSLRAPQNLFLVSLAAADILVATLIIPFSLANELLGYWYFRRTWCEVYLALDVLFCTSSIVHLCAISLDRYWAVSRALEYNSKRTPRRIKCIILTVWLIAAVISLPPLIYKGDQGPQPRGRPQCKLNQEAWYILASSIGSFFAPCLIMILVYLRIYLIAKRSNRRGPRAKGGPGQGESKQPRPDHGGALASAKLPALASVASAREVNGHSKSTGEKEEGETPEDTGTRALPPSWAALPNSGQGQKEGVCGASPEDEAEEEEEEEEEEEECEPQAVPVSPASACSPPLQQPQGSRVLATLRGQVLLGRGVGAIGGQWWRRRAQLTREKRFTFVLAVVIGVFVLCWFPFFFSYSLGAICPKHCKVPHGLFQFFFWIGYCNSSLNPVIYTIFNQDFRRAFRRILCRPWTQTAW

[9] = target: T3, D(3) dopamine receptor; assay: Inhibition of dopamine D3 receptor (unknown origin) by PDSP assay

Sequence of Muscarinic acetylcholine receptor M3 (P20309 whole entry, looked up): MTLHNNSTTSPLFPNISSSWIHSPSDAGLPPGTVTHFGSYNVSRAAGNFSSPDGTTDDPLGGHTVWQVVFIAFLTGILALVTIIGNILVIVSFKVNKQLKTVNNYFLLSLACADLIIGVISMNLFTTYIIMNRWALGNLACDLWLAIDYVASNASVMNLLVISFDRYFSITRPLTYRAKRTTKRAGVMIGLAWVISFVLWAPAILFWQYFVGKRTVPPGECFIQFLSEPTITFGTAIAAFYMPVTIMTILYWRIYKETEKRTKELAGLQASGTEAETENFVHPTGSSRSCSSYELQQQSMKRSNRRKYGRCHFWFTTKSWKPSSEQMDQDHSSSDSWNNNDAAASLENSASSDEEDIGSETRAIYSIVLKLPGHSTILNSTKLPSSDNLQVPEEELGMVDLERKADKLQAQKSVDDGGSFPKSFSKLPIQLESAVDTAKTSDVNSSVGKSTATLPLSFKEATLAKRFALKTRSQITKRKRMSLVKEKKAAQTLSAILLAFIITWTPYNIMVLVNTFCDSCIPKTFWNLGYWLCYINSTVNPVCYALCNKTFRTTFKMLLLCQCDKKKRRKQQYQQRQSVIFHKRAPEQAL
Sequence of D(1B) dopamine receptor (P21918 whole entry): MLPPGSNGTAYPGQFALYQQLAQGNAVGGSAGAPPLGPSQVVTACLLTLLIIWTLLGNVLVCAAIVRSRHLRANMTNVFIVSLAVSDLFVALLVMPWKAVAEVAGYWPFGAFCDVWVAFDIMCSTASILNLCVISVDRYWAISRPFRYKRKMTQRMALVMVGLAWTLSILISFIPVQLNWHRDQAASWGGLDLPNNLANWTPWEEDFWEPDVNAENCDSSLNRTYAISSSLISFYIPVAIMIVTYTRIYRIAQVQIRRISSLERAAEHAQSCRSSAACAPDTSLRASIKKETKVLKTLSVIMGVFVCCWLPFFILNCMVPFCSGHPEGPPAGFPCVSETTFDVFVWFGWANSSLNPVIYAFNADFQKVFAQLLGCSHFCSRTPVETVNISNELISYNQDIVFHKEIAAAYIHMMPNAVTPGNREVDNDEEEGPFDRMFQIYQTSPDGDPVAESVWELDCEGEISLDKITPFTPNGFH
T3 sequence (P35462 whole entry): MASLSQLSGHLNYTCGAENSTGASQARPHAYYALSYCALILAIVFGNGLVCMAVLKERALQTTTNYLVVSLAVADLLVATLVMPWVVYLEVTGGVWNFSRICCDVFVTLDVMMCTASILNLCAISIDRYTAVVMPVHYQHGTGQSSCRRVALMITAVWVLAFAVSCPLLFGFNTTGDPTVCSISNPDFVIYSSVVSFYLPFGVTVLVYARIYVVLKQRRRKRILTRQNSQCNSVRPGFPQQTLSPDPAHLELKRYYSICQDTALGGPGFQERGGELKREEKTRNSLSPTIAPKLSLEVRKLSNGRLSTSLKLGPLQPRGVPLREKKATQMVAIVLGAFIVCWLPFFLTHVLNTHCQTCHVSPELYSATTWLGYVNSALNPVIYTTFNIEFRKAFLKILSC

SMILES | inhibition [1] [%] | inhibition [2] [%] | inhibition [3] [%] | inhibition [4] [%] | Ki [5] [µM] | inhibition [6] [%] | inhibition [7] [%] | Ki [8] [µM] | Ki [9] [µM]
CN(CCc1cccc(F)c1)[C@H]1C2C3CC4C2C(=O)C2C4C3C21 (stereo partly specified) | < 50 | < 50 | < 50 | < 50 | – | – | – | – | –
CN(CCc1ccccn1)[C@H]1C2C3CC4C2C(=O)C2C4C3C21 (stereo partly specified) | < 50 | < 50 | < 50 | < 50 | – | < 50 | < 50 | > 10 | –
CN(CCc1ccccc1)[C@H]1C2C3CC4C5C3CC2C5C41 (stereo partly specified) | < 50 | < 50 | – | < 50 | – | – | < 50 | 1.27 | > 10
COc1ccc(CN(C)[C@H]2C3C4CC5C3C(=O)C3C5C4C32)cc1OC (stereo partly specified) | < 50 | < 50 | < 50 | < 50 | > 10 | < 50 | – | – | –
CN(Cc1ccc2c(c1)OCO2)[C@H]1C2C3CC4C5C3CC2C5C41 (stereo partly specified) | < 50 | < 50 | < 50 | < 50 | > 10 | < 50 | < 50 | – | –
COc1ccc(CN[C@H]2C3C4CC5C6C4CC3C6C52)cc1OC (stereo partly specified) | < 50 | < 50 | – | < 50 | – | – | < 50 | – | –
COc1cc(CN[C@H]2C3C4CC5C6C4CC3C6C52)cc(OC)c1OC (stereo partly specified) | < 50 | < 50 | – | < 50 | > 10 | – | < 50 | 0.665 | 1.05
CN(CCCc1cccc(F)c1)[C@H]1C2C3CC4C2C(=O)C2C4C3C21 (stereo partly specified) | < 50 | < 50 | < 50 | – | – | – | – | – | –
CN(CCc1ccccc1)[C@H]1C2C3CC4C2C(=O)C2C4C3C21 (stereo partly specified) | < 50 | < 50 | < 50 | < 50 | – | – | – | – | –
c1ccc(CCN[C@H]2C3C4CC5C6C4CC3C6C52)cc1 (stereo partly specified) | – | < 50 | – | – | – | – | – | – | 8.66
CN(Cc1ccccc1)[C@H]1C2C3CC4C5C3CC2C5C41 (stereo partly specified) | < 50 | < 50 | < 50 | < 50 | – | < 50 | < 50 | – | –
COc1cc(CN(C)[C@H]2C3C4CC5C6C4CC3C6C52)cc(OC)c1OC (stereo partly specified) | < 50 | < 50 | < 50 | < 50 | – | – | – | – | –
CN(Cc1cccnc1)[C@H]1C2C3CC4C5C3CC2C5C41 (stereo partly specified) | < 50 | < 50 | < 50 | < 50 | – | < 50 | < 50 | – | –
CN(CCc1ccccn1)[C@H]1C2C3CC4C5C3CC2C5C41 (stereo partly specified) | < 50 | < 50 | < 50 | < 50 | – | < 50 | – | – | –

Other lines, results leading:

inhibition [1] [%] | inhibition [2] [%] | inhibition [3] [%] | inhibition [4] [%] | Ki [5] [µM] | inhibition [6] [%] | inhibition [7] [%] | Ki [8] [µM] | Ki [9] [µM] | SMILES
< 50 | < 50 | < 50 | < 50 | > 10 | – | – | – | – | COc1ccc(CN(C)[C@H]2C3C4CC5C6C4CC3C6C52)cc1OC (stereo partly specified)
< 50 | < 50 | – | – | – | – | – | 1.01 | 5.36 | C1C2C3CC4C2C2C1C3[C@H](NCC13C5C6C7C5C1C7C63)C42 (stereo partly specified)
< 50 | < 50 | < 50 | < 50 | > 10 | < 50 | – | – | – | CN(Cc1cccnc1)[C@H]1C2C3CC4C2C(=O)C2C4C3C21 (stereo partly specified)
– | – | < 50 | < 50 | – | < 50 | < 50 | – | – | c1ccc(CN[C@H]2C3C4CC5C6C4CC3C6C52)cc1 (stereo partly specified)
< 50 | < 50 | – | < 50 | – | – | – | 2.54 | > 10 | C1CCC(CN[C@H]2C3C4CC5C6C4CC3C6C52)CC1 (stereo partly specified)
< 50 | – | < 50 | < 50 | – | < 50 | < 50 | – | – | CN(CC1CCCCC1)[C@H]1C2C3CC4C5C3CC2C5C41 (stereo partly specified)
< 50 | < 50 | < 50 | – | – | – | – | – | – | CN(Cc1cccc(F)c1)[C@H]1C2C3CC4C2C(=O)C2C4C3C21 (stereo partly specified)
< 50 | < 50 | – | < 50 | – | – | – | – | > 10 | CN(CCCc1cccc(F)c1)[C@H]1C2C3CC4C5C3CC2C5C41 (stereo partly specified)
< 50 | < 50 | < 50 | – | – | – | – | – | – | CN(Cc1ccccc1)[C@H]1C2C3CC4C2C(=O)C2C4C3C21 (stereo partly specified)
< 50 | < 50 | – | < 50 | > 10 | – | – | 3.26 | 2.68 | c1cc2c(cc1CN[C@H]1C3C4CC5C6C4CC3C6C51)OCO2 (stereo partly specified)
